Assay results from publication PMC7067379, “Mapping the S1 and S1’ subsites of cysteine proteases with new dipeptidyl nitrile inhibitors as trypanocidal agents” (PLoS Neglected Tropical Diseases, 2020).
Where two headings read alike, the source gives them in different places.

Experiments:
[1] = Mammalian cytotoxicity assay (MTT); format: cell-based; settings: rhesus monkey, LLCMK2 cells, LLCMK2, 72 h, MTT; Table 2; read-out: CC50 cytotoxicity;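 further: Read-out is absorbance at 570 nm of formazan taken up in DMSO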
Description: LLCMK2 cells were cultured in 96-well plates at a concentration of 5 x 10^4 cells/ml. After 48 h, the plates were washed twice with PBS and 200 μL RPMI medium was added with serial dilutions of the compounds and benznidazole (1.95 μM to 250 μM) in triplicate. After 72 h at 37 °C, the cytotoxic activity of the compounds was determined by the classical MTT [3- (4,5-dimethylthiazol-2-yl) -2,5-diphenyltetrazolium bromide] method. Briefly, 50 μL MTT dissolved in PBS (2.0 mg mL^-1) was added to each well and the plates were incubated for 4 h at 37 °C. The formed formazan crystals were dissolved with DMSO (50 μL/well) and the absorbance of the samples was measured by spectrophotometer at 570 nm after 30 min.

[2] = target: cathepsin L (CatL) (Homo sapiens, UniProt P07711); experiment: Cathepsin L enzyme inhibition; format: biochemical; settings: for Ki: SD lower than 15%, read-out: pKi CatL (converted)
[3] = target: recombinant cruzain (Cz) (Trypanosoma cruzi, UniProt P25779); experiment: Cruzain enzyme inhibition; format: biochemical; settings: SD lower than 15%; read-out: pKi Cz (converted)
Description: (§1) Enzyme inhibition studies for Cz and LmCPB were performed as previously described for Cz. The experimental procedures are described in the Supporting Information (see chapter S3). Cathepsins B, L, S were assayed as reported.

[4] = system: T. cruzi Tulahuen LacZ strain, intracellular amastigote forms; experiment: In vitro trypanocidal activity on intracellular amastigote forms (Tulahuen strain); format: cell-based, Trypanosoma cruzi; settings: for EC50: Trypanosoma cruzi, TULAHUEN; for SI (selective index): from EC50 (T. cruzi) and CC50 (LLCMK2)
Description: Cells were evaluated in 96-well plates. Cells from the LLCMK2 lineage were plated at a concentration of 5x10^4 cells mL^-1. Trypomastigote forms of the Tulahuen LacZ strain were added at a concentration of 5×10^5 parasites mL^-1 and placed in the incubator at 37°C with 5% CO2 for 24 h. After the incubation period, the trypomastigote forms present were removed by successive washes with PBS, remaining only as intracellular amastigote forms. Compounds were added at different concentrations (1.95 μM to 250 μM serial dilutions) and incubated for 72 h. At the end of this period, the substrate CPRG (chlorophenol red β-D-galactopyranoside, 400 μM in 0.3% Triton X-100, pH 7.4) was added. […] Benznidazole was used as a positive control in the same concentrations as the substances, and DMSO as a negative control. Compounds were solubilized in DMSO. The selectivity index (SI) was calculated using the formula: […]. All statistical analyses were done with the program GraphPad Prism v.5.

[5] = target: Leishmania mexicana CPB (LmCPB) (Leishmania mexicana, UniProt P36400); experiment: LmCPB enzyme inhibition; format: biochemical; settings: for Ki: SD lower than 15%, read-out: pKi LmCPB (converted)
Description: as §1

[6] = target: cathepsin S (CatS) (Homo sapiens, UniProt P25774); experiment: Cathepsin S enzyme inhibition; format: biochemical; settings: for Ki: SD lower than 15%, read-out: pKi CatS (converted)
Description: as §1

[7] = target: cathepsin B (CatB) (Homo sapiens, UniProt P07858); experiment: Cathepsin B enzyme inhibition; format: biochemical; settings: 10 μM; replicates = 2; n.i. = no inhibition observed at 10 μM
[8] = target: T1, Human recombinant cathepsin K (Homo sapiens, UniProt P43235); experiment: Cathepsin K assay; format: biochemical; settings: for Ki: SD lower than 15%, read-out: pKi CatK (converted)
T1 sequence (P43235 115-329): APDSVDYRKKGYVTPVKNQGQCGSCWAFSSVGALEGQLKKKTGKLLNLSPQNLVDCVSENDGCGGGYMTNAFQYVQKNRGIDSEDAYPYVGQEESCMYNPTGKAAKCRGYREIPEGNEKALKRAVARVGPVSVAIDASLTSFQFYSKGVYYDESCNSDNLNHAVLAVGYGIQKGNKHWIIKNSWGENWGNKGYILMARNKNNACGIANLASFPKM
Description: Human recombinant cathepsin K was assayed on a FLUOSTAR Optima plate reader at 25 °C with an excitation wavelength of 360 nm and an emission wavelength of 440 nm on a 96 well plate. The enzyme solution (23 μg/mL in 50 mM sodium acetate pH 5.5, 50 mM NaCl, 0.5 mM EDTA, 5 mM DTT) was diluted 1:100 with assay buffer (100 mM sodium citrate buffer pH 5.0, 100 mM NaCl, 1 mM EDTA, 0.01% CHAPS) containing 5 mM DTT and was then incubated at 37 °C for 30 min for activation. A 1.5 mM stock solution of the substrate Z-Leu-Arg-AMC was prepared in DMSO. […] The assay was performed with a final concentration of cathepsin K of 1.73 ng/mL. Stock solutions of inhibitors were prepared in DMSO. The final DMSO concentration was 2% (4 μL). Into a well containing 194.5 μL assay buffer, 0.8 μL of the fluorogenic substrate, DMSO and inhibitor solution (3.2 μL) were added. Upon addition of cathepsin K (1.5 μL), the measurement was started and followed for 20 min.

[9] = dog, in vivo; cited from earlier work
[10] = system: T. cruzi infection; design: method as in PMID 14580960; settings: mice ref 10, 11; cited from earlier work
[11] = system: T. cruzi; design: method as in PMID 14580960; settings: dogs ref 10, 11; cited from earlier work
[12] = 72 h, amastigote, Tulahuen strain, 72 h, Table 2, read-out: EC50 trypanocidal activity
[13] = T. cruzi amastigote form, S1 Table, read-out: pEC50 (converted)
[14] = 10 μM, replicates = 2, n.i. = no inhibition observed at 10 μM

Sequence of recombinant cruzain (Cz) (P25779 123-337): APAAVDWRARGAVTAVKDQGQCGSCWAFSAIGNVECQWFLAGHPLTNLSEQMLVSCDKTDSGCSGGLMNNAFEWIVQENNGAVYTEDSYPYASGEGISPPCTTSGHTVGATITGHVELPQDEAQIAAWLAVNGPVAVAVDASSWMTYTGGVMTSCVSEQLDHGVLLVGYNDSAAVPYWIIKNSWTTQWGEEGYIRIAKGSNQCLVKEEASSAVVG
Sequence of cathepsin S (CatS) (P25774 115-331): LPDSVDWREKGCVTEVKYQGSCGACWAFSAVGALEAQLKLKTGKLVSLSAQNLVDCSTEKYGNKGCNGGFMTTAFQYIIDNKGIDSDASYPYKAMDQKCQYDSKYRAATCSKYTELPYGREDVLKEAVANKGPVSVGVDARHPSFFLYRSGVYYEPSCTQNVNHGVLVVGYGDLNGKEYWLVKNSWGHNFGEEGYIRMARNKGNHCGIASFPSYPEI
Sequence of Leishmania mexicana CPB (LmCPB) (P36400 126-443): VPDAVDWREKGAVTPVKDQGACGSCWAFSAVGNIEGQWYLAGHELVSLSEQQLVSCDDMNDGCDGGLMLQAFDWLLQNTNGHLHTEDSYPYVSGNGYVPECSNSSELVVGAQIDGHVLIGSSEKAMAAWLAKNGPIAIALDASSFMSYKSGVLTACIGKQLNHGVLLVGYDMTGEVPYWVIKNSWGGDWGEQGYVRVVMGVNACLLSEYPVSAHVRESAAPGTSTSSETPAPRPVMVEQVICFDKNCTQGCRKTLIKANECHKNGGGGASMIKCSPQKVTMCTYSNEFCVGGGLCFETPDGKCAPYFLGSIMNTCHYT
Sequence of cathepsin L (CatL) (P07711 114-333): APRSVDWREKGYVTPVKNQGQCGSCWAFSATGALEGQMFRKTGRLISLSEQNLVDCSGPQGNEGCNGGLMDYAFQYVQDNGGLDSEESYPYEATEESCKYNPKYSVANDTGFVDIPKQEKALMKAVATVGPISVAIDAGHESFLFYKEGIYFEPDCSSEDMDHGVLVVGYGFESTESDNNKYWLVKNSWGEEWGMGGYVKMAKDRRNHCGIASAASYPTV

SMILES | CC50 at 72 h [1] [µM] | Ki [2] [µM] | Ki [3] [µM] | EC50 [4, 12] [µM] | EC50 [4, 13] [µM] | SI (selective index) ([4]; Table 2) | Ki [5] [µM] | Ki [6] [µM] | remaining activity at 10 µM [7] [%] | melting point [°C] | remaining activity at 10 µM ([8]; 10 μM, replicates = 2, n.i. = no inhibition observed at 10 μM, read-out: remaining activity (%) at 10 μM, CatK) [%] | Ki [8] [µM] | remaining activity at 10 µM [2, 14] [%] | EC50 ([4]; S1 Table, maximum concentration used 250 µM, read-out: EC50 T. cruzi) [µM] | remaining activity at 10 µM ([5]; 10 μM, replicates = 2) [%] | remaining activity at 10 µM [6, 14] [%] | side effects [9] | rescue from lethal infection [10] | effect on parasite growth [11]
C[C@H](O)[C@H](C#N)NC(=O)[C@H](Cc1ccccc1)NC(=O)c1cc(C(C)(C)C)nn1C [Compound 66, 3-(tert-Butyl)-N-((S)-1-(((1S,2S)-1-cyano-2-hydroxypropyl)amino)-1-oxo-3-phenylpropan-2-yl)-1-methyl-1H-pyrazole-5-carboxamide] | > 100 | 2.51 | 3.98 | 30 ± 2.71 | 31.6 | > 3.3 | 15.8 | 20 | 89 | 145 to 147 | 81 |  |  |  |  |  |  |  | 
CC(C)C[C@H](NC(=O)c1cc(C(C)(C)C)nn1C)C(=O)N[C@H](C#N)[C@@H](C)O [Compound 67, 3-(tert-Butyl)-N-((S)-1-(((1R,2R)-1-cyano-2-hydroxypropyl)amino)-4-methyl-1-oxopentan-2-yl)-1-methyl-1H-pyrazole-5-carboxamide] | > 100 | 0.1 | 0.0794 | 24.4 ± 2.36 | 25.1 | > 4.1 | 0.2 | 10 | 92 | 118 to 119 |  | 0.0158 |  |  |  |  |  |  | 
CC(C)C[C@H](NC(=O)c1cc(C(C)(C)C)nn1C)C(=O)N[C@@H](C#N)[C@H](C)O [Compound 68, 3-(tert-Butyl)-N-((S)-1-(((1S,2S)-1-cyano-2-hydroxypropyl)amino)-4-methyl-1-oxopentan-2-yl)-1-methyl-1H-pyrazole-5-carboxamide] | > 100 |  | 3.98 | 16 ± 4 | 15.8 | > 6.3 |  |  | 93 | 111 to 113 |  | 7.94 | 88 | 16.3 | 54 | 83 |  |  | 
CN1CCN(C(=O)N[C@@H](Cc2ccccc2)C(=O)N[C@H](/C=C/S(=O)(=O)c2ccccc2)CCc2ccccc2)CC1 [Compound K777] |  |  |  |  |  |  |  |  |  |  |  |  |  |  |  |  | substantial side effects | rescue mice of a lethal experimental T. cruzi infection | reduce parasite growth
